Measurements published in US20260159512A1, “BCAT2 INHIBITORS” (AGIOS PHARMACEUTICALS, INC., priority 2021, published 2026).

Tests used:
BCAT2 [1] = molecular target: T1, BCAT2 (Homo sapiens, UniProt O15382); assay: BCAT2 in vitro enzyme inhibition assay (resazurin/diaphorase-coupled fluorescence); assay type: biochemical; set-up: key to BCAT2 Enzyme Inhibition: A: less than or equal to 0.100 μM; B: greater than 0.100 and less than or equal to 0.500 μM; C: greater than 0.500 and less than or equal to 1.000 μM; d: greater than 1.000 μM; E: no fit; conditions: average where tested multiple times
T1 sequence (O15382 28-392): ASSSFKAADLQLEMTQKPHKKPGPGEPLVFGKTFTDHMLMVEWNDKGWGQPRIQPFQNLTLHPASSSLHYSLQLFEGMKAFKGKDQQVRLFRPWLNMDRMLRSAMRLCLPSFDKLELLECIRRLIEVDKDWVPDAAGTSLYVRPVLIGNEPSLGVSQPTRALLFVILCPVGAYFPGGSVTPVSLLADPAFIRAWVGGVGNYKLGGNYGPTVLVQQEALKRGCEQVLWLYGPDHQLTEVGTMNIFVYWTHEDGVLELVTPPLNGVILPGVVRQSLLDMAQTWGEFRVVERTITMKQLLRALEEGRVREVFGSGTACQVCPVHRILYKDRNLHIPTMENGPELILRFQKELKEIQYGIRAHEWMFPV
Procedure: BCAT2 In Vitro Enzyme Inhibition Assay
1.67× hBCAT2 Enzyme Mix: 0.33 μg/mL hBCAT2, 1× Buffer
2.5× Substrate Mix: 460 μM L-leucine, 420 μM α-KetoGlutarate, 10 U/mL glutamate dehydrogenase, 10 mM NAD, 30 μg/mL diaphorase, 20 μm Resazurin
BCAT2 enzyme stock solution was diluted to prepare a 1.67× hBCAT2 Enzyme Mix. 1 μL of test compound was first added to the reaction wells followed by 30 μL of 1.67× hBCAT2 Enzyme Mix and incubated at room temperature (25° C.) for one hour. Meanwhile the Substrate Mix was prepared. The reaction was initiated by the addition of 20 μL of the 2.5× Substrate Mix, bringing the final reaction mix of all components to 1×. Reactions were quenched after one hour by the addition of 25 μL of 6% SDS and reaction progress was measured via fluorescence read (Ex 540/Em 590).
Test Compound Preparation:
Test compounds were prepared at 50× final concentration in DMSO, 1 to 3 dilutions were made for 10 points. The compounds were added to the assay as a 1 to 50 dilution (1 μL in 50 μL) to yield a top assay final concentration of 100 μM, decreasing 3-fold for 10 points. Each compound dilution series test also included an assay max (1 μL DMSO Added in lieu of compound, Full Reaction Components Included) and Min (1 μL DMSO Added in lieu of compound, 30 μl of 1.67× hBCAT2 Enzyme Mix replated by 30 μL of 1× Buffer). All tests were performed in technical duplicate.
Where a compound was tested multiple times, the average value of the tests is reported.

BCAT2 [2] = molecular target: T1, BCAT2; assay: BCAT2 in vitro cell inhibition using engineered A549 cells (KMV cell assay, 13C6-KMV by LC-MS/MS); assay type: cell-based; set-up: The result was an engineered A549 cell line that expressed endogenous BCAT2; endogenous in cells; host or cells: A549 cells with MUT and BCAT1 knocked out by CRISPR/CAS9; key to BCAT2 Cell Inhibition: A: less than or equal to 0.100 μM; B: greater than 0.100 and less than or equal to 0.500 μM; C: greater than 0.500 and less than or equal to 1.000 μM; d: greater than 1.000 μM; E: no fit; conditions: average where tested multiple times

Row | Structure (SMILES) | IC50 (BCAT2 [1]) [nM] | IC50 (BCAT2 [2]) [nM] | BCAT2 Cell Inhibition (BCAT2 [2]) | BCAT2 Enzyme Inhibition (BCAT2 [1])
1 | Nc1cc2c(cn1)nc(-c1ccccc1F)n2[C@H]1C[C@H](O)C[C@@H](NC(=O)c2ncc(Cl)s2)C1 [Example 269, N-((1S,3R,5R)-3-(6-amino-2-(2-fluorophenyl)-1H-imidazo[4,5-c]pyridin-1-yl)-5-hydroxycyclohexyl)-5-chlorothiazole-2-carboxamide] | > 1000 | > 1000 |  | 
2 | COC(=O)N[C@H](c1nc2cnc(-c3nc[nH]n3)cc2n1[C@@H]1CCC[C@H](NC(=O)c2ncc(Cl)s2)C1)C(C)C [Example 370, methyl ((S)-1-(1-((1R,3S)-3-(5-chlorothiazole-2-carboxamido)cyclohexyl)-6-(1H-1,2,4-triazol-3-yl)-1H-imidazo[4,5-c]pyridin-2-yl)-2-methylpropyl)carbamate] | > 1000 |  | E | 
3 | O=C(N[C@@H]1C[C@@H](O)C[C@H](n2c(-c3ccccc3F)nc3cnccc32)C1)c1ncc(Cl)s1 [Example 271, 5-chloro-N-((1S,3R,5R)-3-(2-(2-fluorophenyl)-1H-imidazo[4,5-c]pyridin-1-yl)-5-hydroxycyclohexyl)thiazole-2-carboxamide] | > 1000 |  | E | 
4 | CC(C)Cc1nc2cnc(N3CCC[C@@H]3C(N)=O)cc2n1[C@@H]1CCC[C@H](NC(=O)c2ncc(Cl)s2)C1 [Example 308, N-((1S,3R)-3-(6-((R)-2-carbamoylpyrrolidin-1-yl)-2-isobutyl-1H-imidazo[4,5-c]pyridin-1-yl)cyclohexyl)-5-chlorothiazole-2-carboxamide] | > 1000 |  | E | 
5 | CO[C@@H]1C[C@@H](NC(=O)c2ncc(Cl)s2)C[C@@H](n2c(CC(C)C)nc3cnc(-n4cncn4)cc32)C1 [Example 418, 5-chloro-N-((1S,3R,5R)-3-(2-isobutyl-6-(1H-1,2,4-triazol-1-yl)-1H-imidazo[4,5-c]pyridin-1-yl)-5-methoxycyclohexyl)thiazole-2-carboxamide] | > 1000 |  | E | 
6 | O=C(N[C@H]1CCC[C@@H](n2c(-c3ccccc3F)nc3cnc(C4CCCO4)cc32)C1)c1ncc(Cl)s1 (single isomer, unassigned) [Example 200] | 500 to 1000 |  | E | 
7 | CC(C)Cc1nc2cnc(-c3ccccn3)cc2n1[C@H]1CCC[C@@H](NC(=O)c2ncc(Cl)s2)[C@@H]1O [Example 236, 5-chloro-N-((1R,2S,3S)-2-hydroxy-3-(2-isobutyl-6-(pyridin-2-yl)-1H-imidazo[4,5-c]pyridin-1-yl)cyclohexyl)thiazole-2-carboxamide] | 500 to 1000 |  | E | 
8 | CO[C@@H]1C[C@@H](NC(=O)c2ncc(Cl)s2)C[C@@H](n2c(CC(C)C)nc3cnc(-c4ncccn4)cc32)C1 [Example 436, 5-chloro-N-((1S,3R,5R)-3-(2-isobutyl-6-(pyrimidin-2-yl)-1H-imidazo[4,5-c]pyridin-1-yl)-5-methoxycyclohexyl)thiazole-2-carboxamide] | 500 to 1000 |  | E | 
9 | CC(C)Cc1nc2cnc(N3CCC[C@H]3C(C)(C)O)cc2n1[C@@H]1CCC[C@H](NC(=O)c2ncc(Cl)s2)C1 [Example 193, 5-chloro-N-((1S,3R)-3-(6-((S)-2-(2-hydroxypropan-2-yl)pyrrolidin-1-yl)-2-isobutyl-1H-imidazo[4,5-c]pyridin-1-yl)cyclohexyl)thiazole-2-carboxamide] | > 1000 |  | E | 
10 | CO[C@H]1C[C@H](NC(=O)c2ncc(Cl)s2)C[C@H](n2c(-c3ccccc3F)nc3cnc(-n4cncn4)cc32)C1 (stereo in doubt) [Example 415, 5-chloro-N-((1R,3S,5S)-3-(2-(2-fluorophenyl)-6-(1H-1,2,4-triazol-1-yl)-1H-imidazo[4,5-c]pyridin-1-yl)-5-methoxycyclohexyl)thiazole-2-carboxamide] | > 1000 |  | E | 
11 | CO[C@H]1[C@@H](NC(=O)c2ncc(Cl)s2)CCC[C@H]1n1c(-c2ccccc2F)nc2cnc(-c3nc[nH]n3)cc21 [Example 433, 5-chloro-N-((1S,2S,3R)-3-(2-(2-fluorophenyl)-6-(1H-1,2,4-triazol-3-yl)-1H-imidazo[4,5-c]pyridin-1-yl)-2-methoxycyclohexyl)thiazole-2-carboxamide] |  |  | E | E
12 | CC(C)Cc1nc2cnc(N3CCC[C@@H]3C(C)(C)O)cc2n1[C@@H]1CCC[C@H](NC(=O)c2ncc(Cl)s2)C1 [Example 304, 5-chloro-N-((1S,3R)-3-(6-((R)-2-(2-hydroxypropan-2-yl)pyrrolidin-1-yl)-2-isobutyl-1H-imidazo[4,5-c]pyridin-1-yl)cyclohexyl)thiazole-2-carboxamide] | > 1000 |  | E | 

Other lines, results leading:

Row | IC50 (BCAT2 [1]) [nM] | IC50 (BCAT2 [2]) [nM] | BCAT2 Cell Inhibition (BCAT2 [2]) | BCAT2 Enzyme Inhibition (BCAT2 [1]) | Structure (SMILES)
13 | 100 to 500 | 500 to 1000 |  |  | O=C(N[C@@H]1CCC[C@H](n2c(-c3ccccc3F)nc3cnc(-c4ncco4)cc32)[C@H]1O)c1ncc(Cl)s1 [Example 249, 5-chloro-N-((1R,2S,3S)-3-(2-(2-fluorophenyl)-6-(oxazol-2-yl)-1H-imidazo[4,5-c]pyridin-1-yl)-2-hydroxycyclohexyl)thiazole-2-carboxamide]
14 | 500 to 1000 |  | E |  | CNC(=O)c1ccc2c(c1)nc(-c1ccccn1)n2C1CC(O)CC(NC(=O)c2ncc(C(F)F)s2)C1 (stereo not drawn) [Example 294, 5-(difluoromethyl)-N-(3-hydroxy-5-(5-(methylcarbamoyl)-2-(pyridin-2-yl)-1H-benzo[d]imidazol-1-yl)cyclohexyl)thiazole-2-carboxamide]
15 | 500 to 1000 |  | E |  | O=C(N[C@H]1CCC[C@@H](n2c(-c3ccccc3F)nc3cnc(C4CCCO4)cc32)C1)c1ncc(Cl)s1 (single isomer, unassigned) [Example 201]
16 | 500 to 1000 | 500 to 1000 |  |  | Cc1cnn(-c2cc3c(cn2)nc(-c2ccccc2F)n3[C@H]2CCC[C@@H](NC(=O)c3ncc(Cl)s3)[C@@H]2O)n1 [Example 247, 5-chloro-N-((1R,2S,3S)-3-(2-(2-fluorophenyl)-6-(4-methyl-2H-1,2,3-triazol-2-yl)-1H-imidazo[4,5-c]pyridin-1-yl)-2-hydroxycyclohexyl)thiazole-2-carboxamide]
17 | ≤ 100 | > 1000 |  |  | CC(C)Cc1nc2cnc(-n3nccn3)cc2n1[C@H]1C[C@H](O)C[C@@H](NC(=O)c2ccc(Cl)s2)C1 (single isomer, unassigned) [Example 396]
18 | 100 to 500 |  | E |  | CC(C)Cc1nc2cnc(-c3ccccc3C#N)cc2n1[C@@H]1CCC[C@H](NC(=O)c2ncc(Cl)s2)C1 [Example 335, 5-chloro-N-((1S,3R)-3-(6-(2-cyanophenyl)-2-isobutyl-1H-imidazo[4,5-c]pyridin-1-yl)cyclohexyl)thiazole-2-carboxamide]
19 | 100 to 500 | 100 to 500 |  |  | O=C(N[C@@H]1CCC[C@H](n2c(-c3ccccc3F)nc3cnc(-c4ccccn4)cc32)[C@H]1O)c1ncc(Cl)s1 [Example 241, 5-chloro-N-((1R,2S,3S)-3-(2-(2-fluorophenyl)-6-(pyridin-2-yl)-1H-imidazo[4,5-c]pyridin-1-yl)-2-hydroxycyclohexyl)thiazole-2-carboxamide]
20 | ≤ 100 | 500 to 1000 |  |  | CC(C)C(O)c1nc2cnc(-c3nc[nH]n3)cc2n1[C@@H]1CCC[C@H](NC(=O)c2ncc(Cl)s2)C1 (single isomer, unassigned) [Example 182]
21 | ≤ 100 | ≤ 100 |  |  | CO[C@@H]1C[C@@H](NC(=O)c2ncc(Cl)s2)C[C@@H](n2c(-c3ncccc3F)nc3cnc(-c4nc[nH]n4)cc32)C1 (stereo in doubt) [Example 444, 5-chloro-N-((1S,3R,5R)-3-(2-(3-fluoropyridin-2-yl)-6-(1H-1,2,4-triazol-3-yl)-1H-imidazo[4,5-c]pyridin-1-yl)-5-methoxycyclohexyl)thiazole-2-carboxamide]
